The values below are quoted from earlier work in patent publication US9833455B2, “Preparation and methods of use for ortho-aryl 5-membered heteroaryl-carboxamide containing multi-targeted kinase inhibitors” (Spacefill Enterprises LLC, priority 2011, dated 2017).

What all share (settings): 1 μM, duplicate, without preincubation; cited from earlier work
Data set [1] deals with BRAF(V600E) (Homo sapiens, UniProt P15056, V600E). Also on record: literature Ambit Biosciences.
Data set [2] deals with T1, CDK11 (Homo sapiens, UniProt Q9BWU1).
T1 construct: literature Ambit Biosciences
T1 sequence (Q9BWU1 whole entry): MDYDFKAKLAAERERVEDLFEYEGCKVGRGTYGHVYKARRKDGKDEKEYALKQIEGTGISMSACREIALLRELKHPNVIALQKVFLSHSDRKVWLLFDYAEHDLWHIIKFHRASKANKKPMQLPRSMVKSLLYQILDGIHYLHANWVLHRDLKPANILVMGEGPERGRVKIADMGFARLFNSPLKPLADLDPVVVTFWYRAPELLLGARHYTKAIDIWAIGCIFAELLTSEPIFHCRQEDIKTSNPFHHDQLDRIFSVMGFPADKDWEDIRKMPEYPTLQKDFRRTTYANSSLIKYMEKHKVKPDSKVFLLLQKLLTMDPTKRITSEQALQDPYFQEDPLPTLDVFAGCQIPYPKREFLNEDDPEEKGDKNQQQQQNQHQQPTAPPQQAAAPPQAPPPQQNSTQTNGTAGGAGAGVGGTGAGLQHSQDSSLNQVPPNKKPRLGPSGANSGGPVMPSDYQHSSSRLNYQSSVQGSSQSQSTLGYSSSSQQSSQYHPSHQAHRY

Data set [3] deals with T2, RIOK2 (Homo sapiens, UniProt Q9BVS4).
T2 construct: literature Ambit Biosciences
T2 sequence (Q9BVS4 whole entry): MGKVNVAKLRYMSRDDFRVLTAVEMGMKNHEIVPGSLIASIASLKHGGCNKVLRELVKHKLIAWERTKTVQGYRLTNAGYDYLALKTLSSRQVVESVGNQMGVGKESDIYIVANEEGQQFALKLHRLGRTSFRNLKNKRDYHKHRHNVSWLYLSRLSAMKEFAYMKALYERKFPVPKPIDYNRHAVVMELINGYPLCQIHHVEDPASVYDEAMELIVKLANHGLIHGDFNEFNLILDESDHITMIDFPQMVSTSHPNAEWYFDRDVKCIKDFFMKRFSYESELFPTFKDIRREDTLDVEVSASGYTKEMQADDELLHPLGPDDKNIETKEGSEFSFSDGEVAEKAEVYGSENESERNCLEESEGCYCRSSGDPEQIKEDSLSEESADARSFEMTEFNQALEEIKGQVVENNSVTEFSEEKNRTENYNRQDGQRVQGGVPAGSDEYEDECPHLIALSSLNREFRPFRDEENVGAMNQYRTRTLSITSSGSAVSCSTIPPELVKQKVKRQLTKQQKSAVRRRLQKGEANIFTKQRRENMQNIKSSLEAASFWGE

Data set [4] concerns the target T3, DCAMKL1 (Homo sapiens, UniProt O15075).
T3 construct: literature Ambit Biosciences
T3 sequence (O15075 1-740): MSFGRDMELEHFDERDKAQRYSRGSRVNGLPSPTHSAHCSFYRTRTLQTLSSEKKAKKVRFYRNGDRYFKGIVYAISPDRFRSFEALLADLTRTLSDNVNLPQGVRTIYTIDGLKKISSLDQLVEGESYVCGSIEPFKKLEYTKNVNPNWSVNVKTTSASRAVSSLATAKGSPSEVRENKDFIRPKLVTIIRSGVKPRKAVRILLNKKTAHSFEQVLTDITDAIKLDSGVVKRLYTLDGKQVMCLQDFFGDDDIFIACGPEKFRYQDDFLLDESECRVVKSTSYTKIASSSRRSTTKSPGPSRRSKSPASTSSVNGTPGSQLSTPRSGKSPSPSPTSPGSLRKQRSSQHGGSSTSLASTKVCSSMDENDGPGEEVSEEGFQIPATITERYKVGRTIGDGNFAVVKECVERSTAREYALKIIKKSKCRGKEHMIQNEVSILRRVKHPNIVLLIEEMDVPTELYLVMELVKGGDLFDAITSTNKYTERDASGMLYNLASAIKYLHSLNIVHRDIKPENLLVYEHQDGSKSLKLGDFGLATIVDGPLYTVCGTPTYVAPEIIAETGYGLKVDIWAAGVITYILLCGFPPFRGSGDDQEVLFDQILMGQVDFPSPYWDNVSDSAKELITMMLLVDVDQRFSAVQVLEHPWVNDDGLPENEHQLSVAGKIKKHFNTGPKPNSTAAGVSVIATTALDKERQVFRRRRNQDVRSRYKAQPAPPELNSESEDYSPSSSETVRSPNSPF

The target in data set [5] is T4, BRAF (Homo sapiens, UniProt P15056).
T4 construct: literature Ambit Biosciences
T4 sequence (P15056 whole entry): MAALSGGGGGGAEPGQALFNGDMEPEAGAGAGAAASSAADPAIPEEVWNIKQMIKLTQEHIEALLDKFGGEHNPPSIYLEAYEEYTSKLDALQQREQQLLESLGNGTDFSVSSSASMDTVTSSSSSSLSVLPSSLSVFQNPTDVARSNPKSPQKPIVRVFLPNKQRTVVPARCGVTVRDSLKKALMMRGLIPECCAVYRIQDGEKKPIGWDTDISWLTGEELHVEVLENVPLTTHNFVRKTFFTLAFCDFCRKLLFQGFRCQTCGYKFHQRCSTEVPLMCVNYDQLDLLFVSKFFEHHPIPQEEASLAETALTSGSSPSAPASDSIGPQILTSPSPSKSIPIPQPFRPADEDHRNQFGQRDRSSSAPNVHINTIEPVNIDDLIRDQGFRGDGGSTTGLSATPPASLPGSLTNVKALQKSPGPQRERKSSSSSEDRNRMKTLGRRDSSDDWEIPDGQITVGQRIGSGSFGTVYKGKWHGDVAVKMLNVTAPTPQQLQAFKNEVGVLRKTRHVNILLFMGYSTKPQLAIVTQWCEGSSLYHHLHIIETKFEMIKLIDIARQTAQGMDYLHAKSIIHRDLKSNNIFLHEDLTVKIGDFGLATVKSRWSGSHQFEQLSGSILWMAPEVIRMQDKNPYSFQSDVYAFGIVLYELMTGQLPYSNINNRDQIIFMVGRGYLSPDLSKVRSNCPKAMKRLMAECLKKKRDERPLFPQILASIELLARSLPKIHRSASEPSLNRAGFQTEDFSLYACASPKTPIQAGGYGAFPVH

Data set [6] deals with T5, TYK2 (catalytic) (Homo sapiens, UniProt P29597).
T5 construct: catalytic; literature Ambit Biosciences
T5 sequence (P29597 897-1176 limits assumed): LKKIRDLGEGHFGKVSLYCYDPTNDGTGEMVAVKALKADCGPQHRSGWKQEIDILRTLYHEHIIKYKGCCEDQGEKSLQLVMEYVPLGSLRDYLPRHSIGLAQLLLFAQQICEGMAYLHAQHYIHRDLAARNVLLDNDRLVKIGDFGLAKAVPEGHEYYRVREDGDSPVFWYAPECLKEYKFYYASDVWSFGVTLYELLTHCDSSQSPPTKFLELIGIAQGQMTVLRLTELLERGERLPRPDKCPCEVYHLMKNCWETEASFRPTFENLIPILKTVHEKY

Data set [7] deals with T6, PRKCE (Homo sapiens, UniProt Q02156).
T6 construct: literature Ambit Biosciences
T6 sequence (Q02156 1-737): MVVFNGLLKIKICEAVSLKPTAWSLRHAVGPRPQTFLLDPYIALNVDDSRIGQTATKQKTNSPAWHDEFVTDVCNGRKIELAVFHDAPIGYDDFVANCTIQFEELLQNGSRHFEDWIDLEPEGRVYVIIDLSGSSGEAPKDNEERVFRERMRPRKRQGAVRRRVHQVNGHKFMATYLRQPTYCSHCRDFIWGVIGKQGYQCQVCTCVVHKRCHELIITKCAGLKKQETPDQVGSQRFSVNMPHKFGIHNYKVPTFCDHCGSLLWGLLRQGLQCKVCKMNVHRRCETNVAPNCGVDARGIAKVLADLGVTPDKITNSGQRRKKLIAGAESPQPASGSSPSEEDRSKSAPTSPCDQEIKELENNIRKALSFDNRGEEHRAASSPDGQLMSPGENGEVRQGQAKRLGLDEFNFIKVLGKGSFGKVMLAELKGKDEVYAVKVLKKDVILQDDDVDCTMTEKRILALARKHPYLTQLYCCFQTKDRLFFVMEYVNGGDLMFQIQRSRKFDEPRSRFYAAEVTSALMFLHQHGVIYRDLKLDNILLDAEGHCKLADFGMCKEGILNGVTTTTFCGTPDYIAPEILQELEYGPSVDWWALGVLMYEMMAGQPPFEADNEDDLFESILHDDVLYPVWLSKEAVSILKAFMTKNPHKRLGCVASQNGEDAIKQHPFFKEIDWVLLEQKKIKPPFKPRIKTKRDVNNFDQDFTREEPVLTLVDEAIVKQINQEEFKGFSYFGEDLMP

Data set [8] concerns the target T7, MKNK1 (Homo sapiens, UniProt Q9BUB5).
T7 construct: literature Ambit Biosciences

Data set [9] addresses T8, RAF1 (Homo sapiens, UniProt P04049).
T8 construct: literature Ambit Biosciences

Data set [10] concerns the target T9, PLK4 (Homo sapiens, UniProt O00444).
T9 construct: literature Ambit Biosciences
T9 sequence (O00444 1-970): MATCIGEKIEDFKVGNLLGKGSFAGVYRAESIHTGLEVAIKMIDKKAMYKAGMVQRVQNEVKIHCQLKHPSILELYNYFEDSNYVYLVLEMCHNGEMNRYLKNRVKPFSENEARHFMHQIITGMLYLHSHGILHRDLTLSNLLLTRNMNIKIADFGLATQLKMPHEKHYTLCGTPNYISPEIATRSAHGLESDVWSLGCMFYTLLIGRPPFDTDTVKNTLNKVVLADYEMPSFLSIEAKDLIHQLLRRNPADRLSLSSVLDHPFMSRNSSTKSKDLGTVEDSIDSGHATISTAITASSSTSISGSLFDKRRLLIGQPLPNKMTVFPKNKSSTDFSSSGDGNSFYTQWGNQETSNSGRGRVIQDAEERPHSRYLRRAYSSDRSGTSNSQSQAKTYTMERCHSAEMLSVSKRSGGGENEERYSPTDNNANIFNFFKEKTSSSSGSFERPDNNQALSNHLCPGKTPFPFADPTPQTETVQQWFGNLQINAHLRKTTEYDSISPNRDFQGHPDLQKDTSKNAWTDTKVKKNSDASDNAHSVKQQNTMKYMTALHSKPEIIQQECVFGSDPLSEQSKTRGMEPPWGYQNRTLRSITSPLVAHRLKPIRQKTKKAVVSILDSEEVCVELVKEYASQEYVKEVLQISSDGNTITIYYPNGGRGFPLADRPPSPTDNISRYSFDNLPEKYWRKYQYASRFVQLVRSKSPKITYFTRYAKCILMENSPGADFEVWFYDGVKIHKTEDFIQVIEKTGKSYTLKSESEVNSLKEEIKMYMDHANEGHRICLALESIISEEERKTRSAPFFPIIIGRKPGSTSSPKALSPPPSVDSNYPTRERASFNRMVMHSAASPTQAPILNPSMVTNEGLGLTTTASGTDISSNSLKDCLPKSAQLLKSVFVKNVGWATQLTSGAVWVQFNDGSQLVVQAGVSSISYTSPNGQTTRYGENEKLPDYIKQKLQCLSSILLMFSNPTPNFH

Data set [11] has as its target T10, ERBB2 (Homo sapiens, UniProt P04626).
T10 construct: literature Ambit Biosciences

T8 sequence (P04049 whole entry): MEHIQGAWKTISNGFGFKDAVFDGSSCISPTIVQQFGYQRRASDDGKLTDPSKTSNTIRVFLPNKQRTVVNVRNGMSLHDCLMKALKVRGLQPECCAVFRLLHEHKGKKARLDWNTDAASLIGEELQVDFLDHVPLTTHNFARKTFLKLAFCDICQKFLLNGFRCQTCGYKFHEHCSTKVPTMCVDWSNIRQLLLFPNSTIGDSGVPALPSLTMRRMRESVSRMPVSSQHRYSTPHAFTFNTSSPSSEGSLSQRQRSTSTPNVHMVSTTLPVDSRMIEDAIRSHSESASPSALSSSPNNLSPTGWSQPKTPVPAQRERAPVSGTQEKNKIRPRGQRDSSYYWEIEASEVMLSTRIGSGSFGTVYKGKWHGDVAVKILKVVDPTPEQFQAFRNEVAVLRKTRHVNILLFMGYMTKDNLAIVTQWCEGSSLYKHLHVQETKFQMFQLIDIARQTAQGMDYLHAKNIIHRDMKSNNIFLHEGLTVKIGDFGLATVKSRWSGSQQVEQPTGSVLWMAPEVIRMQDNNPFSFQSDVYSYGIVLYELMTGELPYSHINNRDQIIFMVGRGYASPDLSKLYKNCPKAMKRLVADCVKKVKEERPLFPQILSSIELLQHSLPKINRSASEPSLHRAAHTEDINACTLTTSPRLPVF
T10 sequence (P04626 23-1255): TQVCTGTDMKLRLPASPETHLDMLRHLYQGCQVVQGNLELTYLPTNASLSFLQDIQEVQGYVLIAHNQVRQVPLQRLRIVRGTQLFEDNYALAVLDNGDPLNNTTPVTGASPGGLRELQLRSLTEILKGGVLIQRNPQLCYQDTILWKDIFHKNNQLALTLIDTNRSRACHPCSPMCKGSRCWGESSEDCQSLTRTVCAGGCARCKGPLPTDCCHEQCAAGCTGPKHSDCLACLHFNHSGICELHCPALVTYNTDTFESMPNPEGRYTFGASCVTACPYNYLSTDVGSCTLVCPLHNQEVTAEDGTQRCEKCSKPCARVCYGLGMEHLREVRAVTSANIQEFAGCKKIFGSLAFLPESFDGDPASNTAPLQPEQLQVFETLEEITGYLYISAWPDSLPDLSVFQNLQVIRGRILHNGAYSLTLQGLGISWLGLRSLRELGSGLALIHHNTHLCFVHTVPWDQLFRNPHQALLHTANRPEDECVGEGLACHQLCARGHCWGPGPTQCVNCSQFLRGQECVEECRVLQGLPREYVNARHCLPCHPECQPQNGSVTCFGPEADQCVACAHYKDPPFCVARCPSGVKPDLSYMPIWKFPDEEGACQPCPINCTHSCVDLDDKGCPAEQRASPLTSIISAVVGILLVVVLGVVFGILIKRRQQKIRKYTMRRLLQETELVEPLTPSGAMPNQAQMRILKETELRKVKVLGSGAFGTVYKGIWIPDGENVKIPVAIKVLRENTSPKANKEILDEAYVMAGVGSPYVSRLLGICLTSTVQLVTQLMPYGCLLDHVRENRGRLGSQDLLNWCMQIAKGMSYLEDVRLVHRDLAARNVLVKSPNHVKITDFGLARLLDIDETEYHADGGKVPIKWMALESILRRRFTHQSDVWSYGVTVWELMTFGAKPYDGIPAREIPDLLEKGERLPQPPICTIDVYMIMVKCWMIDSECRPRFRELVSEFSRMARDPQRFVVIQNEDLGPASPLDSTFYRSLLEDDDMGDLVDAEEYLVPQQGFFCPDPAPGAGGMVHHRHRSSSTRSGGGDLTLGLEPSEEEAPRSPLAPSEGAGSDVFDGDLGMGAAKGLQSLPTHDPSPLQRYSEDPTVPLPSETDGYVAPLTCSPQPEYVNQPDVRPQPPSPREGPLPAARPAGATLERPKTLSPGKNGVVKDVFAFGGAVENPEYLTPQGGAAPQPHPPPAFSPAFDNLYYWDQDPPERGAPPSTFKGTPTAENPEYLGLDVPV
T7 sequence (Q9BUB5 whole entry): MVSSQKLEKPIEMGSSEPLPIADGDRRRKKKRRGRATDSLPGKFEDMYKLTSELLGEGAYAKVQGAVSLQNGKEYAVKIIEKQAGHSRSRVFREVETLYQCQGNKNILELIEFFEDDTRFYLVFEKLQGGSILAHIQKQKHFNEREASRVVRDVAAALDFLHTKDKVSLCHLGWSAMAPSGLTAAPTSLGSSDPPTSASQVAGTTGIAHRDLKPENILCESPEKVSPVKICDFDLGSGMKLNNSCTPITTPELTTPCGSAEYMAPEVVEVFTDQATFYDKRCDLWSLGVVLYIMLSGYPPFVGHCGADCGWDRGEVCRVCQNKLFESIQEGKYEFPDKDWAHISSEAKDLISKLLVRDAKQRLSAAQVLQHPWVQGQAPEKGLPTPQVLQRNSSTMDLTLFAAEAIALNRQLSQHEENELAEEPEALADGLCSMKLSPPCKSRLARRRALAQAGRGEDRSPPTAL
BRAF(V600E), sequence (P15056 whole entry V600E): as the sequence (P15056 whole entry) above, with V600E counted along it

Take `Cc1ccc(NC(=O)c2[nH]c(C(F)(F)F)nc2-c2ccc(F)cc2)cc1Nc1ccc2ncn(C)c(=O)c2c1` [KIN-035]: the “inhibition of BRAF(V600E)” value in [1] is reported as “XXXX (XXXX > 90% @ 1 μM)”. Besides, the “inhibition of CDK11” value in [2] was “XX (XX > 50% @ 1 μM)”. Further, the “inhibition of RIOK2” value in data set [3] is on record as “X (X > 25% @ 1 μM)”. Further, the “inhibition of DCAMKL1” value in data set [4] was “X (X > 25% @ 1 μM)”. Moreover, in data set [5], the “inhibition of BRAF” value is on record as “XXXX (XXXX > 90% @ 1 μM)”. In data set [6], the “inhibition of TYK2 (catalytic)” value is “X (X > 25% @ 1 μM)”. Also, the “inhibition of PRKCE” value in data set [7] was “X (X > 25% @ 1 μM)”. Further, the “inhibition of MKNK1” value in data set [8] is listed as “XX (XX > 50% @ 1 μM)”. Further, the “inhibition of RAF1” value in data set [9] is “XXXX (XXXX > 90% @ 1 μM)”. Also, the “inhibition of PLK4” value in data set [10] is “X (X > 25% @ 1 μM)”. Besides, the “inhibition of ERBB2” value in [11] is “X (X > 25% @ 1 μM)”.
Regarding `Cc1ccc(-c2nc(C(F)(F)F)[nH]c2C(=O)Nc2ccc(C)c(Nc3ccc4ncn(C)c(=O)c4c3)c2)cc1F` [KIN-038], in data set [1], the “inhibition of BRAF(V600E)” value is listed as “XXXX (XXXX > 90% @ 1 μM)”. Besides, the “inhibition of CDK11” value in data set [2] is reported as “X (X > 25% @ 1 μM)”. The “inhibition of RIOK2” value in data set [3] was “X (X > 25% @ 1 μM)”. Besides, in data set [4], the “inhibition of DCAMKL1” value was “X (X > 25% @ 1 μM)”. Moreover, the “inhibition of BRAF” value in [5] is on record as “XXX (XXX > 75% @ 1 μM)”. Besides, in data set [6], the “inhibition of TYK2 (catalytic)” value is “X (X > 25% @ 1 μM)”. For the same molecule, in [7], the “inhibition of PRKCE” value is recorded as “X (X > 25% @ 1 μM)”. In data set [8], the “inhibition of MKNK1” value is recorded as “X (X > 25% @ 1 μM)”. In [9], the “inhibition of RAF1” value is “XXXX (XXXX > 90% @ 1 μM)”. The “inhibition of PLK4” value in data set [10] is “X (X > 25% @ 1 μM)”. For the same molecule, the “inhibition of ERBB2” value in data set [11] is listed as “X (X > 25% @ 1 μM)”.
